Results on 18 molecules are retold here after patent US20240043404A1 (AbbVie Inc., priority 2009, published 2024).

Read-outs that look alike come from different tables or passages of the source. Bounds are passed on as bounds.

The assay concerns RS4;11 cells. Briefly: RS4;11 cell viability assay (CellTiter Glo).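 Note: acute lymphoblastic leukemia line RS4,11, EC50 derived from percentage of viable cells after treatment relative to untreated controls, cell killing taken as a measure of Bcl-2 inhibition.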 It counts as cell-based, human. To be noted: Homo sapiens, read-out: RS4. (In general: Cellular ATP, detected with luciferase, serves as a proxy for viable cell number.)
Where [1] appears, read: RS4-11, 48 h, 50,000 cells per well, 10% human serum, 48 hours, 11 EC50 Values.
[2] abbreviates: RS4-11, Table 5, direct comparison Z=N with corresponding analogs Z=C, 11 EC50.

Procedure: The acute lymphoblastic leukemia (ALL) cell line RS4;11 was used as the primary human cell line to assess the cellular activity of Bcl-2 selective agents in vitro and their efficacy in vivo.
Cell cytotoxicity EC50 values were assessed using CellTiter Glo (Promega) according to the manufacturer's recommendations. The EC50 values were determined as a percentage of viable cells following treatment compared to the untreated control cells.

Regarding `CN1CCN(Nc2ccc(S(=O)(=O)NC(=O)c3ccc(N4CCN(CC5=C(c6ccc(Cl)cc6)CC(C)(C)CC5)CC4)cc3Oc3cnc4[nH]ccc4c3)cc2[N+](=O)[O-])CC1` [Example 6, 4-(4-{[2-(4-chlorophenyl)-4,4-dimethylcyclohex-1-en-1-yl]methyl}piperazin-1-yl)-N-({4-[(4-methylpiperazin-1-yl)amino]-3-nitrophenyl}sulfonyl)-2-(1H-pyrrolo[2,3-b]pyridin-5-yloxy)benzamide], the EC50 was determined as 0.0349 µM under setting [1] and 0.035 µM under setting [2].

`CO[C@H]1CC[C@@H](CNc2ccc(S(=O)(=O)NC(=O)c3ccc(N4CCN(CC5=C(c6ccc(Cl)cc6)CC(C)(C)CC5)CC4)cc3Oc3cnc4[nH]ccc4c3)cc2[N+](=O)[O-])CC1` [Example 29, Cis-4-(4-{[2-(4-chlorophenyl)-4,4-dimethylcyclohex-1-en-1-yl]methyl}piperazin-1-yl)-N-[(4-{[(4-methoxycyclohexyl)methyl]amino}-3-nitrophenyl)sulfonyl]-2-(1H-pyrrolo[2,3-b]pyridin-5-yloxy)benzamide]: the EC50 under setting [1] was 0.0205 µM.

`CC1(C)CCC(CN2CCN(c3ccc(C(=O)NS(=O)(=O)c4cnc(OCC5(F)CCN(C6COC6)CC5)c(Cl)c4)c(Oc4cnc5[nH]ccc5c4)c3)CC2)=C(c2ccc(Cl)cc2)C1` [Example 277, N-[(5-chloro-6-{[4-fluoro-1-(oxetan-3-yl)piperidin-4-yl]methoxy}pyridin-3-yl)sulfonyl]-4-(4-{[2-(4-chlorophenyl)-4,4-dimethylcyclohex-1-en-1-yl]methyl}piperazin-1-yl)-2-(1H-pyrrolo[2,3-b]pyridin-5-yloxy)benzamide]: under setting [1], the EC50 came to 0.00818 µM.

Consider `CC1(C)CCC(CN2CCN(c3ccc(C(=O)NS(=O)(=O)c4ccc(NCC5CCCN(CC#N)C5)c([N+](=O)[O-])c4)c(Oc4cnc5[nH]ccc5c4)c3)CC2)=C(c2ccc(Cl)cc2)C1` (stereo not shown) [Example 229, 4-(4-{[2-(4-chlorophenyl)-4,4-dimethylcyclohex-1-en-1-yl]methyl}piperazin-1-yl)-N-{[4-({[1-(cyanomethyl)piperidin-3-yl]methyl}amino)-3-nitrophenyl]sulfonyl}-2-(1H-pyrrolo[2,3-b]pyridin-5-yloxy)benzamide], for which, under setting [1], the EC50 was over 1 µM.

Turning to `CC1(C)CCC(CN2CCN(c3ccc(C(=O)NS(=O)(=O)c4ccc(OCC5(F)CCN(C6CCOCC6)CC5)c([N+](=O)[O-])c4)c(Oc4cnc5[nH]ccc5c4)c3)CC2)=C(c2ccc(Cl)cc2)C1` [Example 192, 4-(4-{[2-(4-chlorophenyl)-4,4-dimethylcyclohex-1-en-1-yl]methyl}piperazin-1-yl)-N-({4-[(4-fluoro-1-tetrahydro-2H-pyran-4-ylpiperidin-4-yl)methoxy]-3-nitrophenyl}sulfonyl)-2-(1H-pyrrolo[2,3-b]pyridin-5-yloxy)benzamide], the EC50 under setting [1] was found to be 0.00241 µM.

Turning to `COCC1CCC(CNc2ccc(S(=O)(=O)NC(=O)c3ccc(N4CCN(CC5=C(c6ccc(Cl)cc6)CC(C)(C)CC5)CC4)cc3Oc3cnc4[nH]ccc4c3)cc2[N+](=O)[O-])CC1` (stereo not shown) [Example 374, 4-(4-{[2-(4-chlorophenyl)-4,4-dimethylcyclohex-1-en-1-yl]methyl}piperazin-1-yl)-N-{[4-({[4-(methoxymethyl)cyclohexyl]methyl}amino)-3-nitrophenyl]sulfonyl}-2-(1H-pyrrolo[2,3-b]pyridin-5-yloxy)benzamide], the EC50 under setting [1] came out at 0.0155 µM.

Take `CC1(C)C=CC(c2ccc(Cl)cc2)=C(CN2CCN(c3ccc(C(=O)NS(=O)(=O)c4ccc(NCC5CCOCC5)c([N+](=O)[O-])c4)c(Oc4cnc5[nH]ccc5c4)c3)CC2)C1` [Example 206, 4-(4-{[2-(4-chlorophenyl)-5,5-dimethylcyclohexa-1,3-dien-1-yl]methyl}piperazin-1-yl)-N-({3-nitro-4-[(tetrahydro-2H-pyran-4-ylmethyl)amino]phenyl}sulfonyl)-2-(1H-pyrrolo[2,3-b]pyridin-5-yloxy)benzamide]: the EC50 under setting [1] came to 0.0529 µM.

In the case of `COCCNc1ccc(S(=O)(=O)NC(=O)c2ccc(N3CCN(CC4=C(c5ccc(Cl)cc5)CC(C)(C)CC4)CC3)cc2Oc2ccc3[nH]ccc3c2)cc1[N+](=O)[O-]` [Example 20, 4-(4-{[2-(4-chlorophenyl)-4,4-dimethylcyclohex-1-en-1-yl]methyl}piperazin-1-yl)-2-(1H-indol-5-yloxy)-N-({4-[(2-methoxyethyl)amino]-3-nitrophenyl}sulfonyl)benzamide], the EC50 under setting [1] stood at 0.191 µM; the EC50 (RS4-11, Table 4, selected compounds in U.S. Pat. Application No. 12/631404, 11 EC50) came to 0.191 µM; the EC50 under setting [2] was 0.191 µM.

Regarding `CC1(C)CC(c2ccc(Cl)cc2)=C(CN2CCN(c3ccc(C(=O)NS(=O)(=O)c4ccc(NCC5CCOCC5)c(C(F)(F)F)c4)c(Oc4cnc5[nH]ccc5c4)c3)CC2)CO1` [Example 42, 4-(4-{[4-(4-chlorophenyl)-6,6-dimethyl-5,6-dihydro-2H-pyran-3-yl]methyl}piperazin-1-yl)-2-(1H-pyrrolo[2,3-b]pyridin-5-yloxy)-N-{[4-[(tetrahydro-2H-pyran-4-ylmethyl)amino]-3-(trifluoromethyl)phenyl]sulfonyl}benzamide], the EC50 under setting [1] turned out to be 0.534 µM.

Regarding `O=C(NS(=O)(=O)c1ccc(NCC2CCOCC2)c([N+](=O)[O-])c1)c1ccc(N2CCN(CC3=C(c4ccc(Cl)cc4)CCC(F)(F)C3)CC2)cc1Oc1cnc2[nH]ccc2c1` [Example 321, 4-(4-{[2-(4-chlorophenyl)-5,5-difluorocyclohex-1-en-1-yl]methyl}piperazin-1-yl)-N-({3-nitro-4-[(tetrahydro-2H-pyran-4-ylmethyl)amino]phenyl}sulfonyl)-2-(1H-pyrrolo[2,3-b]pyridin-5-yloxy)benzamide], the EC50 under setting [1] turned out to be 0.0188 µM.

For `COC(=O)N1CCOC(CNc2ccc(S(=O)(=O)NC(=O)c3ccc(N4CCN(CC5=C(c6ccc(Cl)cc6)CC(C)(C)CC5)CC4)cc3Oc3cnc4[nH]ccc4c3)cc2[N+](=O)[O-])C1` (stereo not shown) [Example 317, methyl 2-{[(4-{[4-(4-{[2-(4-chlorophenyl)-4,4-dimethylcyclohex-1-en-1-yl]methyl}piperazin-1-yl)-2-(1H-pyrrolo[2,3-b]pyridin-5-yloxy)benzoyl]sulfamoyl}-2-nitrophenyl)amino]methyl}morpholine-4-carboxylate], under setting [1], the EC50 turned out to be 0.0133 µM.

As for `CC1(C)CCC(CN2CCN(c3ccc(C(=O)NS(=O)(=O)c4ccc(NCC5(N)CCOCC5)c([N+](=O)[O-])c4)c(Oc4cnc5[nH]ccc5c4)c3)CC2)=C(c2ccc(Cl)cc2)C1` [Example 108, N-[(4-{[(4-aminotetrahydro-2H-pyran-4-yl)methyl]amino}-3-nitrophenyl)sulfonyl]-4-(4-{[2-(4-chlorophenyl)-4,4-dimethylcyclohex-1-en-1-yl]methyl}piperazin-1-yl)-2-(1H-pyrrolo[2,3-b]pyridin-5-yloxy)benzamide], under setting [1], the EC50 turned out to be 0.0241 µM.

As for `O=C(NS(=O)(=O)c1cnc(OCC2CCOCC2)c(Cl)c1)c1ccc(N2CCN(CC3=C(c4ccc(Cl)cc4)CCC4(CCN(C(CF)CF)CC4)C3)CC2)cc1Oc1cnc2[nH]ccc2c1` [Example 267, 4-(4-{[9-(4-chlorophenyl)-3-(1,3-difluoropropan-2-yl)-3-azaspiro[5.5]undec-8-en-8-yl]methyl}piperazin-1-yl)-N-{[5-chloro-6-(tetrahydro-2H-pyran-4-ylmethoxy)pyridin-3-yl]sulfonyl}-2-(1H-pyrrolo[2,3-b]pyridin-5-yloxy)benzamide], under setting [1], the EC50 worked out at 0.0694 µM.

For `CC1(C)CC(c2ccc(Cl)cc2)=C(CN2CCN(c3ccc(C(=O)NS(=O)(=O)c4cnc(OCC5CCOCC5)c(Cl)c4)c(Oc4cnc5[nH]ccc5c4)c3)CC2)CO1` [Example 41, 4-(4-{[4-(4-chlorophenyl)-6,6-dimethyl-5,6-dihydro-2H-pyran-3-yl]methyl}piperazin-1-yl)-N-{[5-chloro-6-(tetrahydro-2H-pyran-4-ylmethoxy)pyridin-3-yl]sulfonyl}-2-(1H-pyrrolo[2,3-b]pyridin-5-yloxy)benzamide], under setting [1], the EC50 was 0.058 µM.

Consider `CC1(C)CCC(CN2CCN(c3ccc(C(=O)NS(=O)(=O)c4ccc(OC[C@@H]5CC(F)(F)CN5C5COC5)c([N+](=O)[O-])c4)c(Oc4cnc5[nH]ccc5c4)c3)CC2)=C(c2ccc(Cl)cc2)C1` [Example 168, 4-(4-{[2-(4-chlorophenyl)-4,4-dimethylcyclohex-1-en-1-yl]methyl}piperazin-1-yl)-N-[(4-{[(2S)-4,4-difluoro-1-oxetan-3-ylpyrrolidin-2-yl]methoxy}-3-nitrophenyl)sulfonyl]-2-(1H-pyrrolo[2,3-b]pyridin-5-yloxy)benzamide], for which the EC50 under setting [1] is 0.0887 µM.

Take `CC1(C)CCC(CN2CCN(c3ccc(C(=O)NS(=O)(=O)c4ccc(NCCCN(CC(F)(F)F)C5CC5)c([N+](=O)[O-])c4)c(Oc4cnc5[nH]ccc5c4)c3)CC2)=C(c2ccc(Cl)cc2)C1` [Example 308, 4-(4-{[2-(4-chlorophenyl)-4,4-dimethylcyclohex-1-en-1-yl]methyl}piperazin-1-yl)-N-{[4-({3-[cyclopropyl(2,2,2-trifluoroethyl)amino]propyl}amino)-3-nitrophenyl]sulfonyl}-2-(1H-pyrrolo[2,3-b]pyridin-5-yloxy)benzamide]: the EC50 under setting [1] came out at 0.257 µM.

Consider `O=C(NS(=O)(=O)c1ccc(NCC2CCOCC2)c([N+](=O)[O-])c1)c1ccc(N2CCN(CC3=C(c4ccc(Cl)cc4)CC4(CC3)CC4)CC2)cc1Oc1cnc2[nH]ccc2c1` [Example 328, 4-(4-{[5-(4-chlorophenyl)spiro[2.5]oct-5-en-6-yl]methyl}piperazin-1-yl)-N-({3-nitro-4-[(tetrahydro-2H-pyran-4-ylmethyl)amino]phenyl}sulfonyl)-2-(1H-pyrrolo[2,3-b]pyridin-5-yloxy)benzamide], for which, under setting [1], the EC50 came out at 0.00988 µM.

As to `CC1(C)CCC(CN2CCN(c3ccc(C(=O)NS(=O)(=O)c4ccc(NCC5CCOCC5)c(S(=O)(=O)C(F)(F)F)c4)c(Oc4cnc5[nH]ccc5c4)c3)CC2)=C(c2ccc(Cl)cc2)C1` [Example 17, 4-(4-{[2-(4-chlorophenyl)-4,4-dimethylcyclohex-1-en-1-yl]methyl}piperazin-1-yl)-2-(1H-pyrrolo[2,3-b]pyridin-5-yloxy)-N-({4-[(tetrahydro-2H-pyran-4-ylmethyl)amino]-3-[(trifluoromethyl)sulfonyl]phenyl}sulfonyl)benzamide], the EC50 reads like this: under setting [1], 0.475 µM; under setting [2], 0.475 µM.
